In article PMC5893132, “Selective inhibition of histamine-evoked Ca^2+ signals by compartmentalized cAMP in human bronchial airway smooth muscle cells” (Cell Calcium, 2018):

Experiments:
Type in all cases: cell-based, human
[1] = test system: histamine-evoked Ca^2+ signals in hBASMCs; assay: Histamine-evoked Ca2+ signals in populations of fluo-4-loaded hBASMCs; details: for effect on histamine-evoked Ca2+ signals: pre-treatment: 8-Br-cGMP, IBMX 20 min, forskolin 10 μM, NKH477 10 μM, butaprost 10 μM, TCS2510 1 μM 5 min
Experimental: (§1) Two methods were used to measure [Ca^2+]i in populations of hBASMCs. For measurements using a FlexStation III plate-reader (Molecular Devices, Sunnyvale, CA, USA), hBASMCs were seeded into 96-well plates (10^4 cells per well). After about 4 days, when the cells were confluent, the medium was replaced with SMGM-2 without serum or growth factor supplements, and the cells were used after a further 24 h. This period in serum-free medium increased by about 2-fold the amplitude of the increases in [Ca^2+]i evoked by histamine (results not shown). Cells were washed with HEPES-buffered saline (HBS: 135 mM NaCl, 5.9 mM KCl, 1.2 mM MgCl2, 1.5 mM CaCl2, 11.6 mM HEPES, 11.5 mM D-glucose, pH 7.3), and loaded with fluo-4 by incubation with fluo-4-AM (2 μM) in HBS (100 μL per well) containing pluronic F127 (0.02%, v/v) and probenecid (2.5 mM). After 1 h at 20 °C, the medium was replaced with HBS (100 μL per well) containing probenecid (2.5 mM). After a further incubation at 20 °C for 1 h, the medium was replaced with HBS (60–80 μL per well) or nominally Ca^2+-free HBS, and the cells were used immediately for experiments at 20 °C. In some experiments, BAPTA (2.5 mM) was added to HBS during the recording; this reduced the free [Ca^2+] of the HBS to ∼120 nM without affecting the pH. Drug additions (20 μL at 4 or 5 times the final concentration) were added automatically. Fluorescence from fluo-4 (excitation 485 nm, emission 525 nm) was recorded at 1.44-s intervals using Softmax Pro 5.4 (Molecular Devices). Fluorescence was calibrated to [Ca^2+]i from: [Ca^2+]i=KDCa×(F−Fmin/Fmax−F) where, KDCa is the equilibrium dissociation constant of fluo-4 for Ca^2+ (345 nM), F is the recorded fluorescence, and Fmin and Fmax are the fluorescence values recorded after addition of triton-X-100 (0.1%, v/v) with either BAPTA (10 mM, Fmin) or CaCl2 (10 mM, Fmax). Although treatment with triton-X-100 releases fluo-4 from cells into the medium, the fluo-4 fluorescence is captured with the same efficiency whether it is trapped within cells or dispersed within the small volume of the wells (unpublished observations). Fmax was determined for each well at the end of an experiment, and the average value was used for each column of 8 wells. Fmin was determined from parallel wells on each plate.
For measurements of [Ca^2+]i using an FDSS 7000 FLIPR (Hamamatsu), hBASMCs were seeded into 384-well plates (8000 cells per well) in 20 μL of SMGM-2 containing 5% serum. After 24 h, the medium was replaced with 15 μL of serum-free SMGM-2, and after a further 6 h the cells were loaded with Ca^2+ indicator by addition of FLIPR calcium 4 assay kit (Molecular Devices) supplemented with probenecid (2.5 mM). The exact composition of this ‘no-wash’ indicator kit is not disclosed by the manufacturer, but it contains fluo-4-AM and components that reduce background fluorescence. The manufacture’s stock solution was diluted 10-fold into HBSS containing BSA (0.1%, w/v) and HEPES (20 mM); 5 μL of this solution was then added to each well (containing 15 μL of serum-free SMGM-2). After 2 h at 37 °C in humidified air containing 5% CO2, the plate was used for experiments at 20 °C. Most additions (5 μL) were prepared in HBSS supplemented with HEPES (20 mM) and BSA (0.1%, w/v). For more prolonged incubations, drugs were diluted in the initial loading medium (to avoid changes in dye-loading during the ‘no wash’ protocol). Fluorescence signals (excitation at 480 nm, emission at 540 nm) were calibrated to [Ca^2+]i after measurement of Fmin and Fmax uniquely for each well, using a KDCa = 345 nM.
All concentration-effect relationships were determined by addition of different drug concentrations to individual wells in the same multi-well plate, rather than by sequential additions to the same well. […]

[2] = test system: intracellular cAMP in hBASMCs; assay: Intracellular cAMP in hBASMCs by mass spectrometry; details: IBMX 20 min; MS
Experimental: These methods were modified from. Confluent cultures of hBASMCs in 48-well plates were serum-deprived (6–24 h) and the medium was then replaced with HBSS (300 μL) containing HEPES (5 mM) and BSA (0.1%, w/v). Cells were stimulated at 20 °C, and reactions were terminated by aspiration of the medium and addition of acetonitrile (170 μL) containing dibutyryl cAMP (0.5 μM, to provide an internal standard). The plates were centrifuged (1500 xg, 15 min, 4 °C), supernatants (158 μL) were transferred to a 96-well, glass-coated plate (Thermo Scientific), and aqueous NH4HCO3 (pH 9.4, 93 μL) was added to each sample. After mixing and centrifugation (1500 xg, 15 min, 4 °C), samples were stored at 4 °C before analysis. Samples were analyzed by liquid chromatography tandem mass spectrometry (LC–MS/MS) using a Waters Acquity UPLC and a Sciex 5500 mass spectrometer equipped with an electrospray ionization source. ATP, ADP, AMP and cAMP were analyzed using a ZIC-pHILIC polymeric column (5-μm particle size, […]) maintained at 35 °C. Calibration standards were prepared in the lysis medium containing the internal standard, dibutyryl cAMP (0.5 μM). […] Samples were detected using multiple reaction monitoring in negative ion mode using the following parent-to-daughter mass transitions: cAMP m/z 327.9 → 133.9 (DP −100 V, CE −33 eV), AMP m/z 345.9 → 134.0 (DP −100 V, CE −50 eV), ADP m/z 426.0 → 134.0 (DP −100 V, CE −30 eV), ATP m/z 505.9 → 408.0 (DP −100 V, CE −35 eV), and internal standard dibutyryl cAMP m/z 468.1 → 175.0 (DP −100 V, CE −35 eV). Concentration-effect relationships were fitted to logistic equations for each experiment using GraphPad Prism (version 5, GraphPad Software, La Jolla, CA, USA), from which half-maximally effective drug concentrations (EC50), maximal responses, and Hill slopes were determined. For statistical analyses, maximal responses, Hill slopes and pEC50 (-logEC50) or pIC50 (-log of the half-maximal inhibitory concentration, IC50) values determined for individual experiments were pooled for statistical analysis. […]

[3] = test system: intracellular Ca^2+ stores of hBASMCs; assay: Ca2+ content of intracellular stores, by ionomycin in Ca2+-free HBS; details: isoproterenol, forskolin 10 μM, 5 min, 2-APB 5 min, higher concentrations needed than for inhibition of GPCR-evoked signals
L-type Ca^2+ channels = assay: Depolarization (K+)-evoked increase in [Ca2+]i in single fura-2-loaded hBASMCs; details: nimodipine 10 μM, 5 min; extracellular Na+ replaced with K+ 140 mM; all 44 cells, mean ± SD, single experiment; 50 ± 11 nM in absence
[4] = test system: Ca^2+ signals evoked by histamine, bradykinin or carbachol in hBASMCs; assay: GPCR-evoked Ca2+ signals (histamine, bradykinin or carbachol, stated together) in hBASMCs; details: added 5 min before stimulus; nimodipine 10 μM; 2-APB indicated concentrations; HBSS
Experimental: as §1, with “This period in serum-free medium increased by about 2-fold the amplitude of the increases in [Ca^2+]i evoked by histamine (results not shown).” left out, “In some experiments, BAPTA (2.5 mM) was added to HBS during the recording; this reduced the free [Ca^2+] of the HBS to ∼120 nM without affecting the pH.” left out, “Although treatment with triton-X-100 releases fluo-4 from cells into the medium, the fluo-4 fluorescence is captured with the same efficiency whether it is trapped within cells or dispersed within the small volume of the wells (unpublished observations).” left out
(§2) For measurements of [Ca^2+]i using an FDSS 7000 FLIPR (Hamamatsu), hBASMCs were seeded into 384-well plates (8000 cells per well) in 20 μL of SMGM-2 containing 5% serum. […] The exact composition of this ‘no-wash’ indicator kit is not disclosed by the manufacturer, but it contains fluo-4-AM and components that reduce background fluorescence. […]

[5] = test system: bradykinin-evoked Ca^2+ signals in hBASMCs; assay: Bradykinin-evoked Ca2+ signals in populations of fluo-4-loaded hBASMCs; details: PTX 100 ng·mL^−1, 24 h
Experimental: as §1, with “This period in serum-free medium increased by about 2-fold the amplitude of the increases in [Ca^2+]i evoked by histamine (results not shown).” left out, “In some experiments, BAPTA (2.5 mM) was added to HBS during the recording; this reduced the free [Ca^2+] of the HBS to ∼120 nM without affecting the pH.” left out, “Although treatment with triton-X-100 releases fluo-4 from cells into the medium, the fluo-4 fluorescence is captured with the same efficiency whether it is trapped within cells or dispersed within the small volume of the wells (unpublished observations).” left out
as §2

[6] = test system: LPA-evoked Ca^2+ signals in hBASMCs; assay: LPA-evoked Ca2+ signals in populations of fluo-4-loaded hBASMCs; details: PTX 100 ng·mL^−1, 24 h
Experimental: Two methods were used to measure [Ca^2+]i in populations of hBASMCs. For measurements using a FlexStation III plate-reader (Molecular Devices, Sunnyvale, CA, USA), hBASMCs were seeded into 96-well plates (10^4 cells per well). After about 4 days, when the cells were confluent, the medium was replaced with SMGM-2 without serum or growth factor supplements, and the cells were used after a further 24 h. […] Cells were washed with HEPES-buffered saline (HBS: 135 mM NaCl, 5.9 mM KCl, 1.2 mM MgCl2, 1.5 mM CaCl2, 11.6 mM HEPES, 11.5 mM D-glucose, pH 7.3), and loaded with fluo-4 by incubation with fluo-4-AM (2 μM) in HBS (100 μL per well) containing pluronic F127 (0.02%, v/v) and probenecid (2.5 mM). […] Fluorescence from fluo-4 (excitation 485 nm, emission 525 nm) was recorded at 1.44-s intervals using Softmax Pro 5.4 (Molecular Devices). Fluorescence was calibrated to [Ca^2+]i from: [Ca^2+]i=KDCa×(F−Fmin/Fmax−F) where, KDCa is the equilibrium dissociation constant of fluo-4 for Ca^2+ (345 nM), F is the recorded fluorescence, and Fmin and Fmax are the fluorescence values recorded after addition of triton-X-100 (0.1%, v/v) with either BAPTA (10 mM, Fmin) or CaCl2 (10 mM, Fmax). […] Fmax was determined for each well at the end of an experiment, and the average value was used for each column of 8 wells. Fmin was determined from parallel wells on each plate. […]

[7] = test system: carbachol-evoked Ca^2+ signals in hBASMCs; assay: Carbachol-evoked Ca2+ signals in populations of fluo-4-loaded hBASMCs; details: PTX 100 ng·mL^−1, 24 h
Experimental: Two methods were used to measure [Ca^2+]i in populations of hBASMCs. For measurements using a FlexStation III plate-reader (Molecular Devices, Sunnyvale, CA, USA), hBASMCs were seeded into 96-well plates (10^4 cells per well). After about 4 days, when the cells were confluent, the medium was replaced with SMGM-2 without serum or growth factor supplements, and the cells were used after a further 24 h. […] Cells were washed with HEPES-buffered saline (HBS: 135 mM NaCl, 5.9 mM KCl, 1.2 mM MgCl2, 1.5 mM CaCl2, 11.6 mM HEPES, 11.5 mM D-glucose, pH 7.3), and loaded with fluo-4 by incubation with fluo-4-AM (2 μM) in HBS (100 μL per well) containing pluronic F127 (0.02%, v/v) and probenecid (2.5 mM). After 1 h at 20 °C, the medium was replaced with HBS (100 μL per well) containing probenecid (2.5 mM). After a further incubation at 20 °C for 1 h, the medium was replaced with HBS (60–80 μL per well) or nominally Ca^2+-free HBS, and the cells were used immediately for experiments at 20 °C. […] Drug additions (20 μL at 4 or 5 times the final concentration) were added automatically. Fluorescence from fluo-4 (excitation 485 nm, emission 525 nm) was recorded at 1.44-s intervals using Softmax Pro 5.4 (Molecular Devices). Fluorescence was calibrated to [Ca^2+]i from: [Ca^2+]i=KDCa×(F−Fmin/Fmax−F) where, KDCa is the equilibrium dissociation constant of fluo-4 for Ca^2+ (345 nM), F is the recorded fluorescence, and Fmin and Fmax are the fluorescence values recorded after addition of triton-X-100 (0.1%, v/v) with either BAPTA (10 mM, Fmin) or CaCl2 (10 mM, Fmax). […] Fmax was determined for each well at the end of an experiment, and the average value was used for each column of 8 wells. Fmin was determined from parallel wells on each plate.
as §2

Compound: CC(C)Cn1c(=O)n(C)c(=O)c2[nH]cnc21 [IBMX, 3-isobutyl-1-methylxanthine]
- effect on histamine-evoked Ca2+ signals [1]: an inhibition of histamine-evoked Ca^2+ signals
- effect on intracellular cAMP [2]: an accumulation of intracellular cAMP

Compound: C=C[C@@]1(C)CC(=O)[C@]2(O)[C@@]3(C)[C@@H](O)CCC(C)(C)[C@@H]3[C@H](O)[C@H](OC(C)=O)[C@@]2(C)O1 [forskolin]
- effect on the Ca2+ content of the intracellular stores [3]: Neither isoproterenol nor forskolin (10 μM, 5 min) affected
- effect on histamine-evoked Ca2+ signals [1]: mimicked the effect of isoproterenol

Compound: COCCOC(=O)C1=C(C)NC(C)=C(C(=O)OC(C)C)C1c1cccc([N+](=O)[O-])c1 (stereo not shown) [nimodipine]
- peak increase in [Ca2+]i on depolarization in presence of inhibitor (L-type Ca^2+ channels): 20 ± 14 nM
- effect on the increases in [Ca2+]i evoked by histamine, bradykinin and carbachol [4]: unaffected

Compound: Pertussis toxin [PTX]
- effect of pre-treatment on the Ca2+ signals evoked by histamine ([1]; PTX 100 ng·mL^−1, 24 h): had no effect
- effect of pre-treatment on the Ca2+ signals evoked by bradykinin [5]: had no effect
- effect of pre-treatment on maximal amplitude of and sensitivity of the Ca2+ signals evoked by LPA [6]: significantly reduced
- effect of pre-treatment on maximal amplitude of and sensitivity of the Ca2+ signals evoked by carbachol [7]: significantly reduced
